In series [1] the test system is B. anthracis (Sterne). Particulars: mice infected with a lethal dose of B. anthracis (Sterne); cited from earlier work.
Series [2] in a line: Mouse pharmacokinetic study, intraperitoneal.
Setting [3] is: following a single dose, i.p., mice.

Structures are written as SMILES.

As to `O=C([O-])[C@H](Cc1ccccc1)N1C(=O)/C(=C\c2ccc(-c3ccc(Cl)c(Cl)c3)o2)NC1=S.[Na+]` [Compound 12-ES-Na], in series [1], the “prevention of mortality / block of infection” value is recorded as “can effectively block Bacillus anthracis infection in mice”. Besides, the Cl in series [2] (Group 1, 25 mg/kg i.p., CD-1 female mice) is 2.33 mL/min/kg; in series [2] (Group 2, 50 mg/kg i.p., CD-1 female mice), 1.67 mL/min/kg; in series [2] (Group 3, 100 mg/kg i.p., CD-1 female mice) it was 0.917 mL/min/kg. In series [2] (dosage below 100 mg/kg, i.p., CD-1 female mice), the “mortality and clinical observations” value was “no mortality and no significant clinical observations”. Further, in series [2] (setting [3]), the “AUC relative to the MIC” value is “more than 200 fold”. Also, in series [2] (setting [3]), the “time of concentration above MIC” value is listed as “more than 10 hours”. Also, the clearance in series [2] (rodent PK profile, i.p., mice) is reported as ~ 100 mL/h/kg.

These data come from PMC3890692 (ACS medicinal chemistry letters, 2013).
